What all share (format): biochemical
For one test, the target named is T1, human FAK (Homo sapiens, UniProt Q05397).
T1 construct: The complete cDNA of human FAK; made in house; host or cells: baculovirus expression system (vector pFastBac HTc)
In words: FAK autophosphorylation inhibition, time resolved fluorescence (HTRF) assay. The note with it: 10 μM (values without asterisk); read-out: FAK % inhib at 10 μM. As for the experimental part: The inhibitory activity of the compounds on FAK is determined by measuring the inhibition of the autophosphorylation of the enzyme using a time resolved fluorescence (HTRF) assay.
The complete cDNA of human FAK, the N-terminal end of which was labeled with histidine, was cloned into a baculovirus expression vector pFastBac HTc. The protein was expressed and purified to approximately 70% homogeneity.
The kinase activity is determined by incubating the enzyme (6.6 μg/ml) with various concentrations of test compound in a 50 mM Hepes buffer, pH=7.2, containing 10 mM MgCl2, 100 μM Na3VO4 and 15 μM d'ATP for 1 hour at 37° C. The enzyme reaction is stopped by adding Hepes buffer, pH=7.0, containing […], 133 mM EDTA and 0.1% BSA, and the labeling is carried out, over 1 to 2 hours at ambient temperature, by adding to this buffer an anti-Histidine antibody labeled with XL665 and a monoclonal antibody phosphospecific for tyrosine, conjugated to europium cryptate (Eu-K). The characteristics of the two fluorophores are available in G. Mathis et al., Anticancer Research, 1997, 17, pages 3011-3014. The transfer of energy from the excited europium cryptate to the XL665 acceptor is proportional to the degree of autophosphorylation of FAK. The long-lived signal specific for XL-665 is measured in a Packard Discovery plate counter. All the assays are carried out in duplicate and the mean of the two assays is calculated. The inhibition of the FAK autophosphorylation activity with compounds of the invention is expressed as percentage inhibition compared to a control whose activity is measured in the absence of test compound. The [signal at 665 nm/signal at 620 nm] ratio is used for the calculation of the % inhibition.
(Time-resolved FRET reads energy transfer from a long-lived donor to a nearby acceptor.)

Another test deals with T2, human KDR enzyme (Homo sapiens, UniProt P35968).
T2 construct: The cytoplasmic domain of the human KDR enzyme; GST; made in house; host or cells: SF21 insect cells (baculovirus)
Nature of the test: KDR substrate (PLCγ) phosphorylation, scintillation assay. The note with it: 10 μM; read-out: KDR % inhib at 10 μM. As for the experimental part: The inhibitory effect of the compounds is determined in an assay of substrate phosphorylation by the KDR enzyme in vitro using a scintillation technique (96-well plate, NEN).
The cytoplasmic domain of the human KDR enzyme was cloned in the form of a GST fusion into the baculovirus expression vector pFastBac. The protein was expressed in SF21 cells and purified to approximately 60% homogeneity.
The KDR kinase activity is measured in 20 mM MOPS, 10 mM MgCl2, 10 mM MnCl2, 1 mM DTT, 2.5 mM EGTA, 10 mM β-glycerophosphate, pH=7.2, in the presence of 10 mM MgCl2, 100 μM Na3VO4, 1 mM NaF. 10 μl of the compound are added to 70 μl of kinase buffer containing 100 ng of KDR enzyme at 4° C. The reaction is triggered by adding 20 μl of solution containing 2 μg of substrate (SH2-SH3 fragment of PLCγ expressed in the form of a GST fusion protein), 2 μCi γ^33P[ATP] and 2 μM cold ATP. After incubation for 1 hour at 37° C., the reaction is stopped by adding 1 volume (100 μl) of 200 mM EDTA. The incubation buffer is removed and the wells are washed three times with 300 μl of PBS. The radioactivity is measured in each well using Top Count NXT radioactivity counter (Packard).
The background noise is determined by measuring the radioactivity in four different wells containing the radioactive ATP and the substrate alone.
A control for total activity is measured in four different wells containing all the reagents (γ^33P-[ATP], KDR and PLCγ substrate) but in the absence of compound.
The inhibition of the KDR activity with the compound of the invention is expressed as percentage inhibition of the control activity determined in the absence of compound.
The compound SU5614 (Calbiochem) (1 μM) is included in each plate as an inhibition control.

The next test addresses T3, Aurora2 kinase (Homo sapiens, UniProt O14965).
T3 construct: A complete recombinant Aurora2 enzyme; His tag (N); made in house; host or cells: E. coli
T3 sequence (O14965 1-403): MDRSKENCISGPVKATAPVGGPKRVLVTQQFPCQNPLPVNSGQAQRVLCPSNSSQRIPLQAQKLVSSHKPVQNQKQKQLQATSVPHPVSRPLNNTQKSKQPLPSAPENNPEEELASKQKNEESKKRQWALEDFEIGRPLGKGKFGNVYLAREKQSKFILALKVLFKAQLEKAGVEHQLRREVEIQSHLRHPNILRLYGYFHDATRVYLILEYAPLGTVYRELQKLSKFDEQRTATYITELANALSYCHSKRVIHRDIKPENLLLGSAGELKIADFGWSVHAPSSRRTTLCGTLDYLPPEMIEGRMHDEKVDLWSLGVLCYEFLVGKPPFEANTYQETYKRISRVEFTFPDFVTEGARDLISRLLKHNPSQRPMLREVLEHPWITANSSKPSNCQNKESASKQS
In words: Aurora2 kinase radioactivity scintillation assay using nickel chelate (NuMA substrate). The note with it: 10 μM; read-out: Aurora2 % inhib at 10 μM. As for the experimental part:
The inhibitory effect of compounds with respect to the Aurora2 kinase is determined with a radioactivity scintillation assay using nickel chelate.
A complete recombinant Aurora2 enzyme, the N-terminal end of which was labeled with histidine, was expressed in E. coli and purified to a quality close to homogeneity.
The C-terminal fragment (Q1687-H2101) of a NuMA (Nuclear protein that associates with the Mitotic Apparatus) expressed in E. coli, and the N-terminal end of which was labeled with histidine, was purified by nickel chelate chromatography and used as substrate in the Aurora2 kinase assay. In order to determine the kinase activity, the NuMA substrate is equilibrated by chromatography on a Pharmacia PD10 column, in a buffer (50 mM Tris HCl, pH7.5, 50 mM NaCl, 10 mM MgCl2) to which 10% (v/v) of glycerol and 0.05% (w/v) of NP40 have been added.
The kinase acivitity of Aurora2 is measured by scintillation with nickel chelate (New England Nuclear, model SMP107). Each well contains 100 μl of the following solution: 0.02 μM of Aurora2; 0.5 μM of NuMA substrate; 1 μM of ATP to which 0.5 μCi of ATP-[^33P] has been added. The solutions are incubated for 30 minutes at 37° C. The assay buffer is then removed and the wells are rinsed twice with 300 μl of kinase buffer. The radioactivity is measured in each well using a Packard Model Top Count NXT device.
The background noise is deduced from the measurement of radioactivity by measuring, in duplicate, in wells containing the radioactive ATP alone containing buffered kinase treated in the same way as the other samples.
The activity of the control is determined by measuring, in duplicate, the radioactivity in the complete assay mixture (ATP, Aurora2 and the NuMA substrate) in the absence of test compound.
The inhibition of the Aurora2 with a compound of the invention is expressed as percentage inhibition of the control activity in the absence of test compound. Staurosporine is added to each plate as an inhibition control.

For test [1], the target named is T4, human IGF1R cytoplasmic domain (Homo sapiens, UniProt P08069).
T4 construct: The human IGF1R cytoplasmic domain was cloned; made in house; host or cells: SF21 insect cells (baculovirus)
Nature of the test: IGF1R autophosphorylation inhibition, time resolved fluorescence (HTRF) assay. To be noted: 10 μM; read-out: IGF1R % inhib at 10 μM. As for the experimental part:
The inhibitory activity of the compounds on IGF1R is determined by measuring the inhibition of the autophosphorylation of the enzyme using a time resolved fluorescence (HTRF) assay.
The human IGF1R cytoplasmic domain was cloned, as a fusion with glutathione S-transferase (GST), into the baculovirus expression vector pFastBac-GST. The protein was expressed in SF21 cells and purified to approximately 80% homogeneity.
The kinase activity was determined by incubating the enzyme with various concentrations of test compound in a 50 mM Hepes buffer, pH 7.5, containing 5 mM MnCl2, 50 mM NaCl, 3% glycerol, 0.025% Tween […] of ATP. The enzyme reaction is stopped by adding 100 mM Hepes buffer, pH 7.0, containing 0.4 M KF, 133 mM EDTA and 0.1% BSA containing an anti-GST antibody labeled with XL665 and an antiphosphotyrosine antibody conjugated to europium cryptate (Eu-K). The characteristics of the two fluorophores, XL-665 and Eu-K, are available in G. Mathis et al., Anticancer Research, 1997, 17, pages 3011-3014. The transfer of energy from the excited europium cryptate to the acceptor XL665 is proportional to the degree of autophosphorylation of IGF1R. The long-lived signal specific for XL-665 is measured in a Victor analyzer plate counter (Perkin-elmer). The inhibition of the IGF1R autophosphorylation activity with compounds of the invention is expressed as percentage inhibition compared to a control whose activity is measured in the absence of test compound.

T1 sequence (Q05397 whole entry): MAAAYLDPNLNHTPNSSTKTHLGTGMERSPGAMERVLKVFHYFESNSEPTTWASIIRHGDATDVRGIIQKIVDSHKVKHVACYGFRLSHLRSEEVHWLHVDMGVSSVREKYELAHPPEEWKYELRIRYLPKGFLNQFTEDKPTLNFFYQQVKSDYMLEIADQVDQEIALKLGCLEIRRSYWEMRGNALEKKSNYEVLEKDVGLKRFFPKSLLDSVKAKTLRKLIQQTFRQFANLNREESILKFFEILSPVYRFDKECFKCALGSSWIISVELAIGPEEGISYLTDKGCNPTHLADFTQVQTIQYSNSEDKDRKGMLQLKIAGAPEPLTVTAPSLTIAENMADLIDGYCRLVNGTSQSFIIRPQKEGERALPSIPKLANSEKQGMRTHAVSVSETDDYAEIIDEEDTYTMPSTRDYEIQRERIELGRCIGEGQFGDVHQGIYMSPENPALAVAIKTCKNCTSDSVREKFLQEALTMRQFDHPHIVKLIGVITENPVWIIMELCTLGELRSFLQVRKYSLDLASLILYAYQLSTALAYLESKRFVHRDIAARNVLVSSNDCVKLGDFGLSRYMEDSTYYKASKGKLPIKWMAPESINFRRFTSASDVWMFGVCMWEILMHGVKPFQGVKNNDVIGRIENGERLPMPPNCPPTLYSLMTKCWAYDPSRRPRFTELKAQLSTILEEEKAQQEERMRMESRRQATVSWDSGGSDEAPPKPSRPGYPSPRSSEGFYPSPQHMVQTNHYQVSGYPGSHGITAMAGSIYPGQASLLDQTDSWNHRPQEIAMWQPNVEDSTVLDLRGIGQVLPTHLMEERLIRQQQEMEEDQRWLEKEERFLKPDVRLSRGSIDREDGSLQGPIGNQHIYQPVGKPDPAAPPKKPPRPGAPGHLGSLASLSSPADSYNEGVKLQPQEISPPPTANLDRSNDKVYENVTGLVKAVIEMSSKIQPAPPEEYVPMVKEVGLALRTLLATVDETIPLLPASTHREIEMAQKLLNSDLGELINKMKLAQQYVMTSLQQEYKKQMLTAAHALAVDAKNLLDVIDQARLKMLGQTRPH
T4 sequence (P08069 960-1367 limits assumed): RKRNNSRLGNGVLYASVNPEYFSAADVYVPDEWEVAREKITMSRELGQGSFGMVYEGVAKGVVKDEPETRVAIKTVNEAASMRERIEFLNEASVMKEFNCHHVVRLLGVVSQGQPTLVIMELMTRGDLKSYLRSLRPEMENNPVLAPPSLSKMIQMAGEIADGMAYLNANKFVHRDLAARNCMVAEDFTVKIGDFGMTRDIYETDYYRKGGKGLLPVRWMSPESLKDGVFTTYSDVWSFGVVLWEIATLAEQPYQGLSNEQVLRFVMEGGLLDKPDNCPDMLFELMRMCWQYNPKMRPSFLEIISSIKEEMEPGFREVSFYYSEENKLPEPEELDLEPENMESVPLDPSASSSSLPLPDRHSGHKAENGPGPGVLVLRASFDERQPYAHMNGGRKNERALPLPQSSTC
T2 sequence (P35968 786-1356 limits assumed): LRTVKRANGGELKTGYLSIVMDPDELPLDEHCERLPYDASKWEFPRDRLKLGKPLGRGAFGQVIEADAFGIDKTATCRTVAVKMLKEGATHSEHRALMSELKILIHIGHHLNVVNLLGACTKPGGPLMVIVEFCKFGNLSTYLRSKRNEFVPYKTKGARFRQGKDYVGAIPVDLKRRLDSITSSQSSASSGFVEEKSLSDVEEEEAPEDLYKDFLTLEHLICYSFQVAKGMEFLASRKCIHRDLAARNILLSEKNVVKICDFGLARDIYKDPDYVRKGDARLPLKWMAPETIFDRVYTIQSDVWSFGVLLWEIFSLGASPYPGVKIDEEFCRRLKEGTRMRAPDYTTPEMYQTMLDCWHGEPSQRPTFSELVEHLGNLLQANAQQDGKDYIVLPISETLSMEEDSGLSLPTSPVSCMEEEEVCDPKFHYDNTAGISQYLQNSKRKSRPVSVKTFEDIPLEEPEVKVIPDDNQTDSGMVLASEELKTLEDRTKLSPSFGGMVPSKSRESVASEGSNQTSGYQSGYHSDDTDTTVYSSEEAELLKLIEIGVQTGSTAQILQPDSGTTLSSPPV

With `CS(=O)(=O)c1ccccc1S(=O)(=O)Nc1ccc2[nH]nc(-c3cccc(Cl)c3Cl)c2c1` [Example 208, N-[3-(2,3-Dichlorophenyl)-1H-indazol-5-yl]-2-methanesulfonyl-benzenesulfonamide], the inhibition at 10 µM on human FAK was -1%; at human KDR enzyme, 25%; at Aurora2 kinase, 56%; in test [1], 0%.
In the same order, the values of `O=C(NCc1ccc(S(=O)(=O)Nc2ccc3[nH]nc(-c4ccccc4)c3c2)s1)c1ccccc1` [Example 140, N-[5-(3-Phenyl-1H-indazol-5-ylsulfamoyl)thiophen-2-ylmethyl]benzamide] are 6%, 70%, 71% and 40%.
`CS(=O)(=O)c1ccccc1S(=O)(=O)Nc1ccc2[nH]nc(-c3ccc4c(c3)OCO4)c2c1` [Example 196, N-[3-(Benzo[1,3]dioxol-5-yl)-1H-indazol-5-yl]-2-methanesulfonyl-benzenesulfonamide]: the inhibition at 10 µM turned out to be 94% at human FAK, 73% at human KDR enzyme, 94% on Aurora2 kinase and 76% in test [1].
Turning to `CS(=O)(=O)c1ccc(-c2n[nH]c3ccc(NS(=O)(=O)c4ccccc4S(C)(=O)=O)cc23)cc1` [Example 220, 2-Methanesulfonyl-N-[3-(4-methanesulfonylphenyl)-1H-indazol-5-yl]-benzenesulfonamide], the inhibition at 10 µM on human FAK is 96%; on human KDR enzyme, 88%; on Aurora2 kinase, 95%; in test [1], 75%.
Turning to `CS(=O)(=O)c1ccccc1S(=O)(=O)Nc1ccc2[nH]nc(-c3ccc(Br)cc3)c2c1` [Example 161, N-[3-(4-Bromophenyl)-1H-indazol-5-yl]-2-methanesulfonyl-benzenesulfonamide], the inhibition at 10 µM at human FAK stood at 61%; at human KDR enzyme, 65%; at Aurora2 kinase, 89%; in test [1], 75%.
In the case of `CS(=O)(=O)c1ccccc1S(=O)(=O)Nc1ccc2[nH]nc(-c3cc(Br)cc(Br)c3)c2c1` [Example 211, N-[3-(3,5-Dibromophenyl)-1H-indazol-5-yl]-2-methanesulfonyl-benzenesulfonamide], the inhibition at 10 µM at human FAK came out at 95%; at human KDR enzyme it was 21%; on Aurora2 kinase, 79%; in test [1] it was 45%.
Turning to `CC(=O)Nc1n[nH]c2ccc(NS(=O)(=O)c3cc(F)cc(F)c3)cc12` [Example 44, N-[5-(3,5-Difluorobenzenesulfonylamino)-1H-indazol-3-yl]acetamide], the inhibition at 10 µM on human FAK was found to be 95%; on human KDR enzyme, 37%; in test [1] it was 82%.
As to `CCCS(=O)(=O)Nc1ccc2[nH]nc(-c3ccccc3)c2c1` [Example 128, N-(3-Phenyl-1H-indazol-5-yl)propanesulfonamide], the inhibition at 10 µM at human FAK was determined as 55%; on human KDR enzyme it was 49%; on Aurora2 kinase, 87%.
In the same order, the values of `O=S(=O)(Nc1ccc2[nH]nc(-c3ccccc3)c2c1)c1ccc(-c2ccon2)s1` [Example 150, N-(3-Phenyl-1H-indazol-5-yl)-(5-isoxazol-3-ylthiophene)-2-sulfonamide] are 3%, 75% and 82%.
As to `CS(=O)(=O)Nc1ccc2[nH]nc(-c3ccccc3)c2c1` [Example 124, N-(3-Phenyl-1H-indazol-5-yl)-methanesulfonamide], the inhibition at 10 µM at human FAK is 16%; at human KDR enzyme it was 55%; on Aurora2 kinase, 60%.
On to `CC(C)S(=O)(=O)Nc1ccc2[nH]nc(-c3ccccc3)c2c1` [Example 123, 1-Methyl-N-(3-phenyl-1H-indazol-5-yl)ethanesulfonamide], for which the inhibition at 10 µM on human FAK turned out to be 30%; on human KDR enzyme, 62%; at Aurora2 kinase, 82%.
